Target: T1, TG2 in tissue sections (Mus musculus, UniProt P21981)
T1 construct: from tissue; host or cells: mouse small intestine cryosections (mucosa)
T1 sequence (P21981 1-686): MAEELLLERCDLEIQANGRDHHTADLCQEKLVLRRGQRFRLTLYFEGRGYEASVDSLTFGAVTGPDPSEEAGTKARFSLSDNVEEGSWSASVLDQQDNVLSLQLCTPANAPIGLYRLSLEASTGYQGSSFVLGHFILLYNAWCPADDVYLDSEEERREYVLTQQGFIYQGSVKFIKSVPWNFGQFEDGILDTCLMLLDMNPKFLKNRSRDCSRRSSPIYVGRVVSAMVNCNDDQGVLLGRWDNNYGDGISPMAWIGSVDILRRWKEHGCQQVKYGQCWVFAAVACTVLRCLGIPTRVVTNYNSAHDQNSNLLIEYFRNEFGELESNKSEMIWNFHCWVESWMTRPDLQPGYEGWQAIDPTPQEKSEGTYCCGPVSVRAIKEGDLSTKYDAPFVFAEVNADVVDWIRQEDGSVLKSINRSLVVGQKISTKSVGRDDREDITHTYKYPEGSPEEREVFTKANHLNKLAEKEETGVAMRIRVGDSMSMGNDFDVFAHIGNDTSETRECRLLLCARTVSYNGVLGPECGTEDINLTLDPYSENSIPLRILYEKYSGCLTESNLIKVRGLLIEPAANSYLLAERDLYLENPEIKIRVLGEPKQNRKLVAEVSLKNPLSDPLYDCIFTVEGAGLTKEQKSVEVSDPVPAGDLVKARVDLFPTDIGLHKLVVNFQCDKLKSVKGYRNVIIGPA
Assay: Ex vivo testing of inhibitors on small intestine sections of a control mouse
Details: pre-incubated with 0.2 mg/ml and 0.02 mg/ml inhibitor
Method: After a washing step (1% BSA in PBS buffer), incubation was carried out with 4 μg/ml of the TG2 substrate biotinyl-TVQQEL (Zedira, product number B001) in the presence of 5 mM CaCl2 for 2 h at room temperature. The reaction was stopped with 25 mM EDTA. After one further washing, blocking, and washing step, the primary antibody against human TG2 was added (Zedira, product number A018, 25 μg/ml) and incubated for one hour at room temperature. After four wash steps, streptavidin-FITC (2 μg/ml, streptavidin-fluorescein-isothiocyanate) and Cy3-labeled goat anti-rabbit IgG antibodies (22.5 μg/ml) were added and incubated in the dark at room temperature for 40 min. TG2 was thus visible in the fluorescence microscope as red color (Cy3), whereas biotinyl-TVQQEL incorporated by transglutaminase activity was visualized by green staining (FITC). The superposition of both images led to a yellow color when active transglutaminase was present.
[…] Then the staining protocol as described in example 10 was carried out. In the control sections with 0.0 mg/ml inhibitor yellow staining in the mucosa of the small intestinal was detected, which is due to active TG2.

| TG2 inhibition in sections at the higher concentrations of inhibitor | Compound |
| --- | --- |
| completely inhibited | CCC(CC)CNC(=O)Cn1cccc(NC(=O)[C@H](CC/C=C/C(=O)OC)NC(=O)c2cncn2C)c1=O [A63, (S,E)-Methyl 7-(1-(2-(2-ethylbutylamino)-2-oxoethyl)-2-oxo-1,2-dihydropyridin-3-ylamino)-6-(1-methyl-1H-imidazole-5-carboxamido)-7-oxohept-2-enoate] |
| completely inhibited | CC[C@@H](C)[C@H](NC(=O)Cn1cccc(NC(=O)[C@H](CC/C=C/C(=O)OC)NC(=O)c2ccccc2)c1=O)C(=O)O [A61, (2S,3R)-2-(2-(3-((S,E)-2-benzamido-7-methoxy-7-oxohept-5-enamido)-2-oxopyridin-1(2H)-yl)acetamido)-3-methylpentanoic acid] |

Source: patent US9434763B2, “Derivatives of pyridinone as inhibitors for tissue transglutaminase” (ZEDIRA GMBH, priority 2012, dated 2016)
